This note sets out measurements from patent US11326131B2, “Cleaning composition” (AMITY LIMITED, priority 2008, dated 2022).

The assay relates to polio virus. The assay is classed as cell-based. The settings on record: tested on its own.

On to `CCCCCCCCCCCCN(CCCN)CCCN` [dodecyl dipropylene triamine, Dodecyl dipropylene triamine], for which the “effect against the polio virus” value was “no effect”.
